Reference: PubChem BioAssay AID248 (DTP/NCI, 2004)
Where “and” joins values, the source holds several entries; their conditions need not be identical. Equal values may be shown once. Inconclusive results and toxic doses are left out. No stated cut-off is given here; in the data, active means T/C of 150% or more; inactive means T/C below 125%.

Test system: L1210 leukemia ip in BDF1 mice, survival T/C
Assay: NCI In Vivo Anticancer Drug Screen. Data for tumor model L1210 Leukemia (intraperitoneal) in B6D2F1 (BDF1) mice
Settings: endpoint: mean survival time, higher = longer survival
In short: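 Tumor was transplanted into mice, which were then dosed with test compound or vehicle alone. Survival was recorded for each group, and the treated figure was expressed relative to the control figure.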

[1] = dose: 75.0 mg/kg/injection, schedule: Q01DX001 (ip), vehicle: saline
[2] = dose: 100.0 mg/kg/injection, schedule: Q01DX009 (ip), vehicle: Klucel (hydroxypropylcellulose) (HPC)
[3] = dose: 200.0 mg/kg/injection, schedule: Q01DX009 (ip), vehicle: Klucel (hydroxypropylcellulose) (HPC)
[4] = dose: 400.0 mg/kg/injection, schedule: Q01DX009 (ip), vehicle: Klucel (hydroxypropylcellulose) (HPC)
[5] = dose: 100.0 mg/kg/injection, schedule: Q01DX001 (ip), vehicle: Klucel (hydroxypropylcellulose) (HPC)
[6] = dose: 100.0 mg/kg/injection, schedule: Q04DX003 (ip), vehicle: saline with Tween-80
[7] = dose: 200.0 mg/kg/injection, schedule: Q04DX003 (ip), vehicle: saline with Tween-80
[8] = dose: 400.0 mg/kg/injection, schedule: Q04DX003 (ip), vehicle: saline with Tween-80
[9] = dose: 25.0 mg/kg/injection, schedule: Q01DX009 (ip), vehicle: saline
[10] = dose: 50.0 mg/kg/injection, schedule: Q01DX009 (ip), vehicle: saline
[11] = dose: 100.0 mg/kg/injection, schedule: Q01DX009 (ip), vehicle: saline with Tween-80
[12] = dose: 100.0 mg/kg/injection, schedule: Q04DX002 (ip), vehicle: saline with Tween-80
[13] = dose: 100.0 mg/kg/injection, schedule: Q04DX003 (ip), vehicle: saline
[14] = dose: 200.0 mg/kg/injection, schedule: Q01DX009 (ip), vehicle: saline with Tween-80
[15] = dose: 200.0 mg/kg/injection, schedule: Q04DX002 (ip), vehicle: saline with Tween-80
[16] = dose: 200.0 mg/kg/injection, schedule: Q04DX003 (ip), vehicle: saline
[17] = dose: 400.0 mg/kg/injection, schedule: Q01DX009 (ip), vehicle: saline with Tween-80
[18] = dose: 400.0 mg/kg/injection, schedule: Q04DX002 (ip), vehicle: saline with Tween-80
[19] = dose: 400.0 mg/kg/injection, schedule: Q04DX003 (ip), vehicle: saline
[20] = dose: 100.0 mg/kg/injection, schedule: Q01DX001 (ip), vehicle: saline
[21] = dose: 200.0 mg/kg/injection, schedule: Q01DX001 (ip), vehicle: Klucel (hydroxypropylcellulose) (HPC)
[22] = dose: 100.0 mg/kg/injection, schedule: Q04DX003 (ip), vehicle: Klucel (hydroxypropylcellulose) (HPC)
[23] = dose: 12.5 mg/kg/injection, schedule: Q04DX003 (ip), vehicle: saline with Tween-80
[24] = dose: 25.0 mg/kg/injection, schedule: Q04DX003 (ip), vehicle: saline with Tween-80
[25] = dose: 50.0 mg/kg/injection, schedule: Q04DX003 (ip), vehicle: saline with Tween-80
[26] = dose: 200.0 mg/kg/injection, schedule: Q04DX003 (ip), vehicle: Klucel (hydroxypropylcellulose) (HPC)
[27] = dose: 400.0 mg/kg/injection, schedule: Q04DX003 (ip), vehicle: Klucel (hydroxypropylcellulose) (HPC)

Measured: T/C

Cc1ccccc1N1C(N)=NC(N)=NC1(C)C
inactive: dose: 6.25 mg/kg/injection, schedule: Q01DX009 (ip), vehicle: Klucel (hydroxypropylcellulose) (HPC) 89 % of control | dose: 12.5 mg/kg/injection, schedule: Q01DX009 (ip), vehicle: Klucel (hydroxypropylcellulose) (HPC) 91 % of control | dose: 25.0 mg/kg/injection, schedule: Q01DX009 (ip), vehicle: Klucel (hydroxypropylcellulose) (HPC) 100 % of control | dose: 50.0 mg/kg/injection, schedule: Q01DX009 (ip), vehicle: Klucel (hydroxypropylcellulose) (HPC) 96 % of control | [1] 103 % of control

CCOC(=O)C1C(C#N)C2OC1C(Cl)C2Cl (configuration not stated)
inactive: [2] 100 % of control | [3] 102 % of control | [4] 94 % of control

CCCCC(NC(=O)CN)C(=O)O (configuration not stated)
inactive: dose: 25.0 mg/kg/injection, schedule: Q01DX001 (ip), vehicle: Klucel (hydroxypropylcellulose) (HPC) 105 % of control | dose: 50.0 mg/kg/injection, schedule: Q01DX001 (ip), vehicle: Klucel (hydroxypropylcellulose) (HPC) 103 % of control | [5] 100 % of control

Cc1ccc(-n2ccnc2)c(N=Cc2ccc(N(CCCl)CCCl)cc2F)c1
inactive: dose: 100.0 mg/kg/injection, schedule: Q04DX002 (ip), vehicle: Klucel (hydroxypropylcellulose) (HPC) 98 % of control | dose: 200.0 mg/kg/injection, schedule: Q04DX002 (ip), vehicle: Klucel (hydroxypropylcellulose) (HPC) 106 % of control | dose: 400.0 mg/kg/injection, schedule: Q04DX002 (ip), vehicle: Klucel (hydroxypropylcellulose) (HPC) 106 % of control

Nc1nc(CNc2ccccc2)nc(Nc2ccccc2)n1
inactive: [6] 89 % of control | [7] 101 % of control | [8] 89 % of control

CC(CCN1CCOCC1)(CN=C(N)N)c1cccc2ccccc12 (configuration not stated)
inactive: dose: 12.5 mg/kg/injection, schedule: Q01DX009 (ip), vehicle: saline 111 % of control | [9] 97 % of control | dose: 25.0 mg/kg/injection, schedule: Q04DX002 (ip), vehicle: saline 93 % of control | [10] 100 % of control

CNC(=O)Nc1ccncc1
inactive: [6] 96 % of control | [7] 102 % of control | [8] 91 % of control

CC(=O)OC1CCC2(C)C(=CCC3C2CCC2(C)C3CC3C(c4ccccc4C)=NN(c4ccccc4)C32C#N)C1 (configuration not stated)
inactive: dose: 12.5 mg/kg/injection, schedule: Q04DX002 (ip), vehicle: Klucel (hydroxypropylcellulose) (HPC) 102 % of control | dose: 25.0 mg/kg/injection, schedule: Q04DX002 (ip), vehicle: Klucel (hydroxypropylcellulose) (HPC) 97 % of control | dose: 50.0 mg/kg/injection, schedule: Q04DX002 (ip), vehicle: Klucel (hydroxypropylcellulose) (HPC) 97 % of control

Cc1ccc(Cl)cc1NC(=O)Nc1ccccc1C(N)=O
inactive: dose: 100.0 mg/kg/injection, schedule: Q01DX001 (ip), vehicle: saline with Tween-80 98 % of control | [11] 100 % of control and 110 % of control | [12] 93 % of control and 102 % of control | [13] 97 % of control | dose: 200.0 mg/kg/injection, schedule: Q01DX001 (ip), vehicle: saline with Tween-80 92 % of control | [14] 109 % of control and 120 % of control | [15] 93 % of control and 98 % of control | [16] 95 % of control | dose: 400.0 mg/kg/injection, schedule: Q01DX001 (ip), vehicle: saline with Tween-80 101 % of control | [17] 105 % of control and 89 % of control | [18] 95 % of control and 102 % of control | [19] 103 % of control

CCOC(=O)OC(=O)CNC(=O)CN1C(=O)c2ccccc2C1=O
inactive: [20] 100 % of control | dose: 200.0 mg/kg/injection, schedule: Q01DX001 (ip), vehicle: saline 94 % of control | dose: 400.0 mg/kg/injection, schedule: Q01DX001 (ip), vehicle: saline 91 % of control

Nc1ccn(C2OC(COP(=O)(O)Oc3ccccc3)C(O)C2O)c(=O)n1 (configuration not stated)
inactive: [1] 109 % of control | dose: 150.0 mg/kg/injection, schedule: Q01DX001 (ip), vehicle: saline 113 % of control

C(=NCCN=Cc1ccccc1)c1ccccc1
inactive: [6] 101 % of control | [7] 95 % of control | [8] 111 % of control

CCOC(=O)CCc1c(C(=O)OCC)[nH]c(C)c1C(=O)OC(C)(C)C
inactive: [5] 105 % of control | [21] 124 % of control | dose: 400.0 mg/kg/injection, schedule: Q01DX001 (ip), vehicle: Klucel (hydroxypropylcellulose) (HPC) 95 % of control

CCOC(=O)CC(C(=O)OCC)C(OCC)OCC (configuration not stated)
inactive: [13] 104 % of control | [16] 106 % of control | [19] 111 % of control

COc1ccccc1N=Nc1c(O)n(-c2ccccc2C)c(=S)n(-c2ccccc2)c1=O
inactive: dose: 25.0 mg/kg/injection, schedule: Q04DX003 (ip), vehicle: Klucel (hydroxypropylcellulose) (HPC) 107 % of control | dose: 50.0 mg/kg/injection, schedule: Q04DX003 (ip), vehicle: Klucel (hydroxypropylcellulose) (HPC) 105 % of control | [5] 101 % of control | [22] 107 % of control | [21] 95 % of control

NC(=O)N/N=C/c1ccccc1N
inactive: [11] 94 % of control | [14] 94 % of control | [17] 96 % of control

CC(C)CCC(C)(C)C1=CC(=O)C=CC1=O
inactive: [12] 93 % of control | [15] 90 % of control | [18] 93 % of control

N/C(=N\Cl)C(Cl)(Cl)Cl
inactive: [23] 103 % of control | [24] 103 % of control | [25] 103 % of control

CN1CCC(S)(S)CC1
inactive: dose: 12.5 mg/kg/injection, schedule: Q01DX009 (ip), vehicle: saline with Tween-80 105 % of control | [23] 96 % of control | dose: 25.0 mg/kg/injection, schedule: Q01DX009 (ip), vehicle: saline with Tween-80 93 % of control | [24] 102 % of control | dose: 50.0 mg/kg/injection, schedule: Q01DX009 (ip), vehicle: saline with Tween-80 104 % of control | [25] 106 % of control

NNC(=O)CCCc1ccccc1
inactive: [9] 97 % of control | [10] 103 % of control | [20] 105 % of control

Cc1ccc(C2(C#N)CCCCC2)cc1
inactive: [11] 96 % of control | [6] 108 % of control | [14] 110 % of control | [7] 98 % of control | [17] 110 % of control | [8] 101 % of control

CCCCCCC/C=N\N=C(N)N
inactive: dose: 15.0 mg/kg/injection, schedule: Q01DX Z (ip), vehicle: carboxymethylcellulose (CMC) 97 % of control | dose: 30.0 mg/kg/injection, schedule: Q01DX Z (ip), vehicle: carboxymethylcellulose (CMC) 97 % of control | dose: 60.0 mg/kg/injection, schedule: Q01DX Z (ip), vehicle: carboxymethylcellulose (CMC) 101 % of control

Cc1cccc(C)c1NC(=O)COc1ccc(Cl)cc1
inactive: [2] 105 % of control | [22] 95 % of control | [3] 86 % of control | [26] 93 % of control | [4] 97 % of control | [27] 91 % of control

CCCCCCCCCCCCN(C)S(=O)(=O)c1ccc(Cl)c(N)c1
inactive: [11] 95 % of control | [22] 91 % of control | [14] 89 % of control | [26] 108 % of control | [17] 93 % of control | [27] 89 % of control
